# Experimental data taken from patent US11806359B2 (priority 2020, dated 2023).
# What was measured:
# HTLV-1 [1] = experiment: HTLV-1 replication and p19Gag particle release from SLB1 cells, Anti-HTLV-1 p19Gag ELISA; type: cell-based, human T-cell leukemia virus type-1; details: SLB1 cells, 10, 50, 100 μg/ml, 72 hrs
# [2] = tested on: HTLV-1+ SLB1 lymphoma T-cell-line; experiment: Cytotoxicity/apoptosis in HTLV-1+ SLB1 cells, Annexin V-FITC/PI staining; type: cell-based; details: 72 hrs
# Description: SLB1 T-cells were treated with increasing concentrations (10, 50, and 100 μg/ml) of oleandrin or a N. oleander extract for 72 hrs as described herein. As a negative control, the cells were also treated with increasing amounts (1.5, 7.5, and 15 μg) of the vehicle solution which corresponded to the volumes used in the drug-treated cultures. Cyclophosphamide (50 μM; Sigma-Aldrich)-treated cells were included as a positive control for apoptosis. Then, the samples were washed and stained with Annexin V-FITC and propidium iodide (PI) and analyzed by confocal fluorescence-microscopy. The relative percentages of Annexin V-FITC and/or PI-positive cells were quantified by fluorescence-microscopy and counting triplicate visual fields using a 20× objective lens.
# To assess the relative cytotoxicity of the oleandrin compound, extract of N. oleander, or the Vehicle control in treated cell cultures, 2×10^4 HTLV-1+ SLB1 lymphoma T-cells or activated/cultured huPBMCs were plated in 300 μl of complete medium, supplemented with antibiotics, and maintained at 37.0 under 10% CO2 in a humidified incubator. The cultures were treated with either increasing concentrations (10, 50, and 100 μg/ml) of oleandrin or N. oleander extract, or the Vehicle control ([…]) and incubated for 72 hrs. […] The total numbers of cells per field were quantified by microscopy using a DIC phase-contrast filter.
# huPBMCs = experiment: Cytotoxicity/apoptosis in primary huPBMCs, Annexin V-FITC/PI staining; type: cell-based, human; details: compared to the vehicle control, 72 hrs
# Description: Primary buffy-coat huPBMCs were isolated and stimulated with phytohemagglutinin (PHA) and cultured in the presence of recombinant human interleukin-2 (hIL-2). The cells were then treated for 72 hrs with increasing concentrations of oleandrin or a N. oleander extract, or with increasing volumes of the Vehicle. The samples were subsequently stained with Annexin V-FITC and PI and the relative percentages of apoptotic (i.e., Annexin V-FITC and/or PI-positive) cells per field were quantified by confocal fluorescence-microscopy and counting in-triplicate.
# Cytotoxic effects of the Vehicle control, N. oleander extract, and the oleandrin compound were assessed by treating primary huPBMCs for 72 hrs, and then the cultures were stained with Annexin V-FITC and PI. The relative percentages of apoptotic (i.e., Annexin V-FITC and/or PI-positive) cells were quantified by fluorescence-microscopy and counting triplicate visual fields using a 20× objective lens. The total numbers of cells were determined using DIC phase-contrast microscopy. Cyclophosphamide (50 μM)-treated cells were included as a positive control for apoptosis. NA indicates the number of cells in this sample was too low for accurate assessment due to higher toxicity. […]
# HTLV-1 [3] = experiment: HTLV-1 transmission in SLB1/huPBMC co-culture, p19Gag ELISA (Example 22); type: cell-based, human T-cell leukemia virus type-1; details: 15 min or 3 hrs pre-treatment, 72 hrs co-culture
# HTLV-1 [4] = experiment: Virological synapse formation and HTLV-1 transmission, SLB1/pLenti-GFP with huPBMCs, fluorescence microscopy; type: cell-based, human T-cell leukemia virus type-1; details: in vitro co-culture
# SARS-CoV-2 = SARS-CoV-2 viral titer and infectivity of progeny virions in Vero cells (Example 28); type: cell-based; details: for reduction in virus load: oleandrin pretreatment
# Description: Further proof of the efficacy of oleandrin (oleandrin-containing composition) against coronavirus, e.g. SARS-CoV-2 (COVID-19), was obtained through in vitro evaluation according to Example 28, wherein Vero cells were pretreated with oleandrin and then infected with SARS-CoV-2. Following infection of the cells, the extracellular virus and oleandrin was washed away, and the infected cells were then treated with oleandrin (FIG. 23A: 1 microg/mL in 0.1% v/v aqueous DMSO; FIG. 23C: 0.1 microg/mL in 0.01% v/v aqueous DMSO) or just aqueous DMSO as control vehicle (FIG. 23B: 0.1% v/v aqueous DMSO; FIG. 23D: 0.01% v/v aqueous DMSO). […] The results further indicate that oleandrin inhibits infectivity of progeny virus by a) about 1 log10 without continuous drug treatment; and b) about >3 log10 with continuous drug treatments (without toxicity).
# A stock solution of oleandrin in methanol (10 mg oleandrin/mL) was prepared. The stock solution was used to prepare incubation media containing DMSO (0.1% or 0.01% v/v in aqueous culture medium RPMI 1640 and oleandrin (20 microg/mL, 10 microg/mL, 1.0 microg/mL, or 0.1 microg/mL). The incubation solutions are as follows.
# Uninfected Vero cells (target initial cell count 1×10^6) in culture were incubated in each of the indicated incubation media in vials for 30 min at 37° C. A viral inoculate of SARS-CoV-2 was then added to each vial to achieve a target initial viral titer (about PFU/mL 1×10^4). The target MOI (multiplicity of infection) of about 0.1. The solutions were incubated for an additional 2 h at 37° C. to achieve infection of the Vero cells. The infected Vero cells were then washed with control vehicle to remove extracellular virus and oleandrin. New aliquots of each incubation medium were added to each respective vial of infected Vero cells. Those receiving oleandrin in the second aliquot were denoted as “+ treatment Post-infection”, and those not receiving oleandrin in the second aliquot were denoted as “− treatment Post-infection” (FIGS. 23A-23D). The viral titer for each vial was determined at about 24 h and about 48 h after infection.
# The data acquired included quantity of virus produced, infectivity of progeny virus, and relative safety (nontoxicity) of oleandrin in infected and uninfected cells.
# [5] = In vitro cellular assay for release of lactate dehydrogenase; type: cell-based
# Description: Proof of the safety of the oleandrin-containing composition was further provided by in vitro cellular assay for determining the release of lactate dehydrogenase after exposure of said cells to solutions containing different concentrations of oleandrin. It was determined that up to concentrations of 1 microg/mL, there was no additional toxicity over control vehicle.
# HIV-1 [6] = details: cited from earlier work
# HIV-1 [7] = details: Singh et al. 2013; cited from earlier work
smiles,measurement,setting,value
CO[C@H]1C[C@H](O[C@H]2CC[C@@]3(C)[C@H](CC[C@@H]4[C@@H]3CC[C@]3(C)[C@@H](C5=CC(=O)OC5)[C@@H](OC(C)=O)C[C@]43O)C2)O[C@@H](C)[C@@H]1O [oleandrin],HTLV-1 replication or release of p19Gag-containing virus particles,HTLV-1 [1],does not significantly inhibit
same,cytotoxicity/apoptosis at the lowest concentration,[2]; 10 μg/ml,did not induce significant cytotoxicity/apoptosis
same,cytotoxicity compared with the Vehicle control,[2]; treated HTLV-1+ SLB1 cells,not significantly higher than the Vehicle control
same,cytotoxicity in huPBMCs,huPBMCs,moderate cytotoxicity
same,transmission of HTLV-1 in co-culture,HTLV-1 [3],inhibited the transmission of HTLV-1
same,formation of virological synapses and transmission of HTLV-1,HTLV-1 [4],inhibited the formation of virological synapses and the transmission of HTLV-1
same,reduction of initial viral infection,SARS-CoV-2; just 30 min preincubation of Vero cells,only slightly effective
same,reduction in virus load,SARS-CoV-2; 24-h time,1368 fold
same,reduction in virus load,SARS-CoV-2; 48-h time point,369 fold
same,inhibition of infectivity of progeny virus,SARS-CoV-2; with continuous drug treatments (without toxicity),> 3 log10
same,inhibition of infectivity of progeny virus,SARS-CoV-2; without continuous drug treatment,about 1 log10
same,concentration up to which no additional toxicity over control vehicle,[5],≤ 1000 ng/mL
same,anti-viral activity against HIV-1,HIV-1 [6],anti-HIV activity
same,HIV-1 viral infectivity in vitro,HIV-1 [7],inhibit viral infectivity in vitro
